Results on 5 compounds are retold here after patent US20240182456A1, “2-((4-((S)-2-(4-CHLORO-2-FLUOROPHENYL)-2-METHYLBENZO[D][1,3]DIOXOL-4-YL)PIPERIDIN-1-YL)METHYL)-1-(((S)-OXETAN-2-YL)METHYL)-1H-IMIDAZOLE DERIVATIVES AS ACTIVATORS OF THE GLP1 RECEPTOR FOR THE TREATMENT OF OBESITY” (Novartis AG, priority 2021, published 2024).

The structures appear in SMILES notation. Read-outs that look alike come from different tables or passages of the source.

One data set has as its target human GLP1R (Homo sapiens, UniProt P43220). As to the kind of experiment: Human GLP1R DERET internalization assay. Format: cell-based. The conditions noted are these: HEK293-SNAP-hGLP1R-GloSensor cells; for EC50: mean n=2; for Emax: relative to GLP1(7-36). The method, then:
(§1) Compounds 1 to 31 were tested in the following cellular assays that measure the intracellular cAMP concentration, beta-arrestin recruitment and receptor internalization. The cAMP is generated by the activation of GLP1R. The cAMP data obtained is shown in Table 1 (where S.E.M. is included, mean n=3 independent experiments+/−S.E.M). Beta-arrestin is recruited upon activation of GLP1R and the data obtained are shown in Table 2 (mean n=2 independent experiments, +/−S.D). The extent to which the GLP1R is internalized into the cell and away from the plasma membrane following activation is also shown in Table 2 (mean n=2 independent experiments, +/−S.D). EC50 for each assay is defined as the concentration of the compound that leads to half of the maximum response (after baseline correction). Emax is defined as the maximum response observed for the test compound, normalized to the maximum response observed for the endogenous ligand (GLP1(7-36)) to GLP1R.
The extent to which agonists internalize the human GLP1R was determined based on an optimized version of a RealTime FRET-based ‘DERET’ (Dissociation Enhanced Resonance Energy Transfer) assay. The technology relies on labeling of the SNAP-tagged GPCR with a SNAP-Lumi-Terbium (donor fluorophore, Cisbio, cat #SSNPTBD). The compounds are incubated with the cells over-expressing the GPCR of interest in the presence of an excess of fluorescein (acceptor fluorophore). When the GPCR is on the cell surface, the donor signal is quenched by the acceptor and the donor/acceptor ratio is low. As the GPCR internalizes, the donor signal is no longer quenched, and the acceptor is no longer excited so the donor/acceptor ratio increases.
HEK293-SNAP-hGLP1R-GloSensor cells (stably overexpressing SNAP-tagged hGLP1R) were seeded overnight in white 384-well poly-D-Lysine coated plates (Greiner Bio One, cat #781945) in regular DMEM growth medium (Gibco, cat #11965-092, 10% heat-inactivated FBS, 10 mM HEPES, 1× penicillin/streptomycin, 0.5 mg/mL geneticin (Gibco, cat #10131-035) and 0.25 mg/mL hygromycin B (Invitrogen, cat #10687010). On the assay day, cell medium was removed and 100 nM SNAP-Lumi-Tb reagent was added in Opti-MEM solution. The cells were incubated at 37° C. for 1 h. Cells were washed using a plate washer in assay buffer [1×HBSS (10× Gibco, cat #14065-056), 20 mM Hepes (Gibco, cat #15630-080), 1 mM CaCl2 (Fluka, cat #21114-1L), 1 mM MgCl2 (Ambion, cat #AM9530G) pH7.4], and 20 μL buffer with 0.1% BSA was added to each well. After leaving cells to equilibrate for ˜15 min at 37° C., 10 μL of Fluorescein (sodium salt, Sigma, cat #F6377, diluted in buffer) was added at 25 μM final concentration. To generate triplicate dose response curves, compounds were serially diluted 3-fold in assay buffer, then added to the cell assay plate to a final volume of 40 μL and final top concentrations starting at 30 μM. In the same plate and assay buffer as the tested compounds, a GLP1 (7-36) peptide (Bachem, cat #H-6795) control curve was included at a final top concentration of 1 μM in order to establish EC100. EC0 wells with buffer only were also included. The plate FRET fluorescence was measured immediately using a Perkin Elmer Envision with LANCE/DELFIA D400 single mirror, excitation filter X320, and emission filters M615_203 (donor emission) and M515 (acceptor emission), and then measured every 30 min. […] Plates were kept at 37° C. between reads. Data was expressed as the ratio of donor/acceptor emissions using Microsoft Excel and plotted in GraphPad Prism. In order to determine EC50 and Emax for internalization, data was calculated and expressed as percent of the GLP1 (7-36) EC100 control wells: [(sample signal−mean EC0 signal)/(mean EC100 of GLP1 (7-36) signal−mean EC0 signal)]*100 using Microsoft Excel. Curve fitting for EC50 determinations was performed using GraphPad Prism. The 4-parameter logistic model, Hill slope was used:
Y=Bottom+(Top−Bottom)/(1+10^((Log EC50−X)*Hill Slope)), […]

Another data set has as its target human GLP1R (hGLP1R) (Homo sapiens, UniProt P43220). Briefly: Human GLP1R cAMP agonist assay (GloSensor). Format: cell-based. The settings on record: for EC50: intracellular cAMP, mean n=3 where SEM is given; for Emax: read-out: Emax mean. The method, then:
as §1
Human GLP1R cAMP Agonist Assay
The agonist activity of compounds was determined using the GloSensor™ cAMP Assay (Promega Corp.), which measures changes in the intracellular concentration of cAMP after ligand activation of GPCRs. The assay uses a biosensor encoded by pGloSensor™-22F cAMP plasmid (Promega, cat #E2301) with cAMP binding domains fused to a mutant form of Photinus pyralis luciferase. Binding to cAMP causes conformational changes that promote large increases in light output, which can be measured by a luminescence detector. HEK293-SNAP-hGLP1R-GloSensor cells stably overexpressing the human GLP1 receptor (hGLP1R) and pGloSensor™-22F were seeded in white 384-well poly-D-Lysine coated plates (Greiner Bio One, cat #781945) in CO2-independent media (Gibco cat #18045-088 with 1.0% FBS, 2 mM L-glutamine, penicillin and streptomycin) and incubated overnight at 37° C., 5% CO2 with humidity. The assay was started the following morning by adding an equal volume of CO2-independent media containing 4% v/v dilution of the GloSensor substrate (Promega, cat #E1291) to all wells. The cell plate was incubated at rt for 2 h in the dark. The Biomek 7 (Beckman Coulter) instrument was used for the liquid handling steps. To generate duplicate dose response curves, 3-fold serially diluted compounds were added in to the cell assay plate to a final volume of 60 μL with final concentrations ranging from 30 μM through 0.06 μM in CO2-independent media containing 0.1% BSA, 0.5 mM IBMX and 0.4% DMSO. In the same plate and assay buffer as the tested compounds, were EC100 control wells containing GLP1 (7-36) peptide (Bachem, cat #H-6795) at a final concentration of 2 nM and also EC0 control wells containing no peptide. This plate was incubated at rt in the dark for 12 min after adding the compounds to the cells. Luminescence was then measured with an Envision 2104 Multilabel reader with “TRF Light Unit, 337 nm” (PerkinElmer) using the Ultra-Sensitive protocol setting “384-well US luminescence detector” with the 384-well luminescence aperture, 0.1 seconds per well. cAMP activity was calculated as percent of the GLP1 (7-36) EC100 control wells: [(sample signal−mean EC0 signal)/(mean EC100 of GLP1 (7-36) signal−mean EC0 signal)}*100. Curve fitting for EC50 determinations was performed in the Helios module of the software package DAVID. The 4-parameter logistic model, Hill slope was used: y=Ainf+(A0−Ainf)/(1+(x/AC50)^Hill Slope) where y is the functional response; x is the compound concentration; A0 is the minimum value (at 0 dose); Ainf is the maximum value (at infinite dose); AC50 corresponds to the point of inflection (i.e. the point on the sigmoid shaped curve halfway between A0 and Ainf). The EC50 value was represented by the AC50 value calculated from Helios in μM. Emax is the maximal activity detected within the concentration range, derived from the fitted curve. […]

Data set [1] can be described thus: Pharmacokinetics in C57BL/6 mice (i.v. and oral). The conditions noted are these: for AUC(0-inf) / Vd / clearance / half-life / Cmax / Tmax: male, C57BL/6, mouse. As for the experimental part: Blood concentration versus time profiles were obtained from 2 groups of 3 male mice. The compound was administered intravenously (i.v.) by bolus injection (5 mL/kg) at a dose of 1 mg/kg in N-methyl-2-pyrrolidone (10%) and 4% bovine serum albumins (BSA) in phosphate-buffered saline (PBS) (90%) or orally administered at a dose of 3 mg/kg (10 mL/kg) as a homogenous suspension of Water (99.4%), Tween 80 (0.1%) and methylcellulose (0.5%). Following compound administration, blood (10 μL/time point) were collected by puncture of the tail vein into ethylenediaminetetraacetic (EDTA)-coated tubes, at 0.083 (i.v. only), 0.25, 0.5, 1, 3, 7, & 24 hours post dose.
Bioanalysis: An aliquot of 10 μL of blood sample and matrix calibration standards were added to a 96-well plate. The samples were extracted using a protein precipitation procedure with addition of 80 μL acetonitrile containing internal standard. The samples were vortexed and centrifuged at 3000 rpm for 5 minutes. A 70 μL aliquot of supernatant was transferred to a clean 96-well plate and a 70 μL of water was added to each well and vortexed. Samples were analyzed and quantified by LC-MS/MS using the conditions outlined below.
• Mass Spectrometer: AP16500+ • Liquid Chromatograph: Agilent 1290 for Compound 3; Shimadzu LC30 AD for Compound 5 • Autosampler (ALS): Agilent 1290 for Compound 3; Shimadzu SIL30AC for Compound 5
• LC Column Acquity BEH C18, 50×2.1 mm, 1.7 μm • Solvent A: • 5:95:0.1 (v:v:v) Acetonitrile:Water:Formic Acid for Compound 3 • 100:0.1 (v:v) Water:Formic acid for Compound 5 • Solvent B: • 50:50:0.1 (v:v:v) Acetonitrile:Methanol:Formic Acid for Compound 3 • 100:0.1 (v:v) Acetonitrile:Formic acid for Compound 5 • Injection Volume [μL]: 1 for Compound 5; 20 for Compound 3 • Column Oven Temp. [° C.]: 50 Compound 3; 40 for Compound 5 • ALS Temp. [° C.]: 5
• Ion Source: TIS • Polarity: Positive • Temperature: 550 • Gas 1: 55 • Gas 2: 55 • Curtain Gas: 20 • Ion Spray Voltage [V]: 5500 for Compound 5; 4500 for Compound 3 • CAD Gas: 9

Where [2] appears, read: HEK293-SNAP-hGLP1R-GloSensor cells.

human GLP1R (hGLP1R), sequence (P43220 24-463): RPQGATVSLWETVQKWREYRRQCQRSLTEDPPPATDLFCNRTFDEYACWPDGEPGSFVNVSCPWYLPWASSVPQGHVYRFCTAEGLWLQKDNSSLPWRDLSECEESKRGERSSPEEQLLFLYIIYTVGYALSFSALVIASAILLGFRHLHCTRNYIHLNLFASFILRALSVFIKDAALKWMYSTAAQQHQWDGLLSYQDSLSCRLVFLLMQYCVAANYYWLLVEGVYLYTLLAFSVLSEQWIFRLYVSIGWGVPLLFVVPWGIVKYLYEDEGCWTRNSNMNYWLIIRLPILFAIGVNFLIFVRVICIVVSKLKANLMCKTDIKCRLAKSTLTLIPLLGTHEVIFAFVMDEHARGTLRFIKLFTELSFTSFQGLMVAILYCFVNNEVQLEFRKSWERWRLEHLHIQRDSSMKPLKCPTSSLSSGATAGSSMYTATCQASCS
human GLP1R, sequence (P43220 24-463): as above

For the compound `C[C@]1(c2ccc(Cl)cc2F)Oc2cccc(C3CCN(Cc4nc(C(F)(F)F)c(-c5nc(=O)o[nH]5)n4C[C@@H]4CCO4)CC3)c2O1` [Compound C-26, 3-(2-((4-((S)-2-(4-chloro-2-fluorophenyl)-2-methylbenzo[d][1,3]dioxol-4-yl)piperidin-1-yl)methyl)-1-(((S)-oxetan-2-yl)methyl)-4-(trifluoromethyl)-1H-imidazol-5-yl)-1,2,4-oxadiazol-5(2H)-one], the EC50 on human GLP1R was greater than 30000 nM; on human GLP1R (hGLP1R) (setting [2]), 0.922 nM. The Emax on human GLP1R was -6%; on human GLP1R (hGLP1R), 99%.
Regarding `Cc1nc(CN2CCC(c3cccc4c3O[C@@](C)(c3ccc(Cl)cc3F)O4)CC2)n(C[C@@H]2CCO2)c1C#CC(=O)O` [Compound C-22, 3-(2-((4-((S)-2-(4-chloro-2-fluorophenyl)-2-methylbenzo[d][1,3]dioxol-4-yl)piperidin-1-yl)methyl)-4-methyl-1-(((S)-oxetan-2-yl)methyl)-1H-imidazol-5-yl)propiolic acid], the 50% effective concentration (EC50) on human GLP1R was 18 nM; on human GLP1R (hGLP1R) (setting [2]), 0.00397 nM. Moreover, the Emax was found to be 76% at human GLP1R and 102% at human GLP1R (hGLP1R) (HEK293-SNAP-hGLP1R-GloSensor cells, cAMP, normalized to GLP1(7-36) maximum response).
Take `Cc1nc(CN2CCC(c3cccc4c3O[C@@](C)(c3ccc(Cl)cc3F)O4)CC2)n(C[C@@H]2CCO2)c1-c1nc(=O)o[nH]1` [Compound C-20, 3-(2-((4-((S)-2-(4-chloro-2-fluorophenyl)-2-methylbenzo[d][1,3]dioxol-4-yl)piperidin-1-yl)methyl)-4-methyl-1-(((S)-oxetan-2-yl)methyl)-1H-imidazol-5-yl)-1,2,4-oxadiazol-5(2H)-one]: the EC50 on human GLP1R is greater than 30000 nM; on human GLP1R (hGLP1R) (setting [2]) it was 0.202 nM. Besides, the Emax worked out at 6% at human GLP1R and 104% on human GLP1R (hGLP1R).
As to `C[C@]1(c2ccc(Cl)cc2F)Oc2cccc(C3CCN(Cc4nc5ccc(C(=O)O)cc5n4C[C@@H]4CCO4)CC3)c2O1` [compound 1, 2-((4-((S)-2-(4-chloro-2-fluorophenyl)-2-methylbenzo[d][1,3]dioxol-4-yl)piperidin-1-yl)methyl)-1-(((S)-oxetan-2-yl)methyl)-1H-benzo[d]imidazole-6-carboxylic acid, reference compound], in data set [1] (male C57BL/6 mice, 3 mg/kg oral dose vs 1 mg/kg i.v.), the BAV was 50.7%. In data set [1] (in vivo, iv, 1 mg/kg), this compound gave a total exposure AUC(0-inf) of 1.19 ± 0.205 µM·h, a Vd of 2.13 ± 0.434 L/kg, a clearance of 24.1 ± 4.52 mL/min/kg and a half-life of 1.25 ± 0.02 h. Besides, in data set [1] (in vivo, po, 3 mg/kg), the area under the curve AUC(0-inf) was 1.98 µM·h, the Cmax is 430 ± 53.4 nM, the Tmax was determined as 1 h and the half-life was 3.19 h.
In data set [1] (whole blood, iv, 1 mg/kg), `C[C@]1(c2ccc(Cl)cc2F)Oc2cccc(C3CCN(Cc4ncc(/C=C/C(=O)O)n4C[C@@H]4CCO4)CC3)c2O1` [Compound 1] showed an AUC(0-inf) of 0.509 ± 0.389 µM·h, a Vd of 4.83 ± 1.79 L/kg, a clearance of 82.3 ± 51.7 mL/min/kg and a half-life of 1.06 ± 0.141 h. Moreover, in data set [1] (whole blood, po, 3 mg/kg), the area under the curve AUC(0-inf) stood at 0.538 ± 0.136 µM·h, the maximum concentration (Cmax) is 240 ± 75.4 nM, the Tmax stood at 0.75 ± 0.434 h and the half-life is 1.22 ± 0.305 h.

A word on the EC50: it is the concentration that produces a half-maximal response. A low value points to an effect from little substance. A word on the Emax: it is the size of the effect at its maximum, as opposed to the concentration needed. What is called AUC(0-inf) is total exposure, with the tail of the curve extrapolated. As a reminder, the half-life is how long it takes for the measured level to halve. The low end stands for rapid decline, the high end for slow decline. For orientation: Cmax means the peak of the concentration-time curve. The term Tmax denotes the time from dosing to the highest level.
